Data: ChEMBL document CHEMBL3734731 (Medchemcomm, 2015)
Numbered stars: 1 amine (or outer) side, 2 acyl side, 3 side chain; on linkers, the order of the positions; unused ones are H or OH. Square brackets hold non-standard residues; d marks the D form. Peptide text beside a SMILES is read from it. * marks the point of attachment. NMeW = CN[C@@H](Cc1c[nH]c2ccccc12)C(=O)O; X2 = NS(=O)(=O)N[C@@H](CC(=O)O)C(=O)*; NMeY = CN[C@@H](Cc1ccc(O)cc1)C(=O)O; X1 = NC(=O)N[C@@H](CC(=O)O)C(=O)*; NMeF = CN[C@@H](Cc1ccccc1)C(=O)O; NMeI = CC[C@H](C)[C@H](NC)C(=O)O; Aad = N[C@@H](CCCC(=O)O)C(=O)O; NMeD = CN[C@@H](CC(=O)O)C(=O)O; Methoxyoxalyl = COC(=O)C(=O)*; NMeL = CN[C@@H](CC(C)C)C(=O)O; Suc = O=C(CCC(=O)[*:2])[*:1]; NMeV = CN[C@H](C(=O)O)C(C)C; Oxamoyl = NC(=O)C(=O)*; CONHOH = O=C(NO)*

Experiments:
[1] = molecular target: T1, Neuromedin-K receptor (Homo sapiens, UniProt P29371); test: Displacement of ([125I]His3-MePhe7)-NKB from NK3 receptor (unknown origin) expressed in CHO cells by scintillation counter; type: cell-based
T1 sequence (P29371 whole entry): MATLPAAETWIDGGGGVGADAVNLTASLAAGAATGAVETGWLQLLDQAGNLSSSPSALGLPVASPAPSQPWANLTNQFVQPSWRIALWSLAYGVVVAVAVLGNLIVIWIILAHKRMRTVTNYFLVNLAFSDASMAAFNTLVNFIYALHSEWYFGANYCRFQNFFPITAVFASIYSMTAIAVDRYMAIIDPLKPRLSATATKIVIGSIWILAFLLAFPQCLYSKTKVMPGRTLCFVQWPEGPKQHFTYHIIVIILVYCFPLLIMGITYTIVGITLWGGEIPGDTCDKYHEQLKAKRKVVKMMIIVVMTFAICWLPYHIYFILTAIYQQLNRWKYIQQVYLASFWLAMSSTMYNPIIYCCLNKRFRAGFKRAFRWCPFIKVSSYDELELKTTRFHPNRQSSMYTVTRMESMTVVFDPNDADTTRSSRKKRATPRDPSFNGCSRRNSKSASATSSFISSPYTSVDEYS

[2] = molecular target: T1, Neuromedin-K receptor; test: Agonist activity at human NK3 receptor expressed in CHO cells assessed as calcium influx relative to 100 nM senktide; type: functional, cell-based
[3] = molecular target: Substance-P receptor (Homo sapiens, UniProt P25103); test: Displacement of [125I]-BH-SP from NK1 receptor (unknown origin) expressed in CHO cells by scintillation counter; type: cell-based
Substance-P receptor, sequence (P25103 whole entry): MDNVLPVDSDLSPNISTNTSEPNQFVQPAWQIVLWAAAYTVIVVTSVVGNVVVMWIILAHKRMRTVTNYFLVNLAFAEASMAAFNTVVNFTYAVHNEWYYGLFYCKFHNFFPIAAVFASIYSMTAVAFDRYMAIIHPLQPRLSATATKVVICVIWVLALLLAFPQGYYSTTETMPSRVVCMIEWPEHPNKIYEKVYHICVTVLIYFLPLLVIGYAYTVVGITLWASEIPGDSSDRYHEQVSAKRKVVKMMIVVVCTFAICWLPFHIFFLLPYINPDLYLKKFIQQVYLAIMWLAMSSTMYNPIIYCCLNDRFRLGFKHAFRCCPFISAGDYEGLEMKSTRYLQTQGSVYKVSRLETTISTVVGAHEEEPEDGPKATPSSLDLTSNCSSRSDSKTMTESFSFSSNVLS

[4] = molecular target: T2, Substance-K receptor (Homo sapiens, UniProt P21452); test: Displacement of [125I]-NKA from NK2 receptor (unknown origin) expressed in CHO cells by scintillation counter; type: cell-based
T2 sequence (P21452 whole entry): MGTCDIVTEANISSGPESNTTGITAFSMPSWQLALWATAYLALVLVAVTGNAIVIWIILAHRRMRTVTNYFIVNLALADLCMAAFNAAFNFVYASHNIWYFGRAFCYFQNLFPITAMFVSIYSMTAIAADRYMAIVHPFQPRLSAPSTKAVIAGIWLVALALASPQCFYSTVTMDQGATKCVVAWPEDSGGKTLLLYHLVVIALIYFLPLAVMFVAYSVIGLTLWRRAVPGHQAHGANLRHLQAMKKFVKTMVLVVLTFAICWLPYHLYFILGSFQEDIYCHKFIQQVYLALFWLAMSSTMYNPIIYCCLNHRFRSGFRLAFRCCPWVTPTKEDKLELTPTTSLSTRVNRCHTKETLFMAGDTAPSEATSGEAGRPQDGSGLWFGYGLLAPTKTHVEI

[5] = molecular target: T3, Neuromedin-K receptor (Homo sapiens) (UniProt P29371); test: Potency index, ratio of EC50 for […] to EC50 for test compound for agonist activity at human NK3 receptor
T3 sequence (whole entry): T1 sequence (P29371 whole entry)

[6] = molecular target: T3, Neuromedin-K receptor (Homo sapiens); test: Potency index, ratio of IC50 for […] to IC50 for test compound for binding affinity to NK3 receptor (unknown origin)

Compound | IC50 [1] [nM] | EC50 [2] [nM] | IC50 [3] [nM] | IC50 [4] [nM] | Ratio EC50 [5] | Ratio IC50 [6]
CSCC[C@H](NC(=O)[C@H](CC(C)C)NC(=O)CNC(=O)[C@H](CC(C)C)N(C)C(=O)[C@H](Cc1ccccc1)NC(=O)[C@H](CC(=O)O)NC(=O)CCC(=O)O)C(N)=O (Suc-DF[NMeL]GLM-NH2) | > 10000 | – | – | – | – | –
CSCC[C@H](NC(=O)[C@H](CC(C)C)NC(=O)CNC(=O)[C@H](Cc1ccccc1)N(C)C(=O)[C@H](Cc1ccccc1)NC(=O)[C@@H](CC(=O)O)NC(=O)[C@H](CC(=O)O)NC(C)=O)C(N)=O | 83 | 0.024 | > 10000 | > 10000 | – | –
CSCC[C@H](NC(=O)[C@H](CC(C)C)NC(=O)CNC(=O)[C@H](Cc1ccccc1)N(C)C(=O)[C@H](Cc1ccccc1)NC(=O)[C@H](CC(=O)O)NC(=O)[C@@H](CC(=O)O)NC(C)=O)C(N)=O | 73 | 0.018 | > 10000 | > 10000 | – | –
CSCC[C@H](NC(=O)[C@H](CC(C)C)NC(=O)CNC(=O)[C@H](C(C)C)N(C)C(=O)[C@H](Cc1ccccc1)NC(=O)[C@H](CC(=O)O)NC(=O)CCC(=O)O)C(N)=O (Suc-DF[NMeV]GLM-NH2) | 104 | 0.064 | > 10000 | > 10000 | – | –
CSCC[C@H](NC(=O)[C@H](CC(C)C)NC(=O)CNC(=O)[C@H](Cc1ccccc1)N(C)C(=O)[C@H](Cc1ccccc1)NC(=O)[C@@H](CCC(=O)O)NC(=O)[C@@H](CC(=O)O)NC(C)=O)C(N)=O | 68 | 0.017 | > 10000 | > 10000 | – | –
CSCC[C@H](NC(=O)[C@H](CC(C)C)NC(=O)CNC(=O)[C@H](Cc1c[nH]c2ccccc12)N(C)C(=O)[C@H](Cc1ccccc1)NC(=O)[C@H](CC(=O)O)NC(=O)CCC(=O)O)C(N)=O (Suc-DF[NMeW]GLM-NH2) | 123 | 0.033 | > 10000 | > 10000 | – | –
CC[C@H](C)[C@@H](C(=O)NCC(=O)N[C@@H](CC(C)C)C(=O)N[C@@H](CCSC)C(N)=O)N(C)C(=O)[C@H](Cc1ccccc1)NC(=O)[C@H](CC(=O)O)NC(=O)CCC(=O)O (Suc-DF[NMeI]GLM-NH2) | 91 | 0.05 | > 10000 | > 10000 | – | –
CSCC[C@H](NC(=O)[C@H](CC(C)C)NC(=O)CNC(=O)[C@H](Cc1ccccc1)N(C)C(=O)[C@H](Cc1ccccc1)NC(=O)[C@H](CC(=O)O)NC(=O)[C@@H](N)CC(=O)O)C(N)=O (H-DDF[NMeF]GLM-NH2) | 175 | 0.063 | > 10000 | > 10000 | – | –
CSCC[C@H](NC(=O)[C@H](CC(C)C)NC(=O)CNC(=O)[C@H](CC(=O)O)N(C)C(=O)[C@H](Cc1ccccc1)NC(=O)[C@H](CC(=O)O)NC(=O)CCC(=O)O)C(N)=O (Suc-DF[NMeD]GLM-NH2) | > 10000 | – | – | – | – | –
CSCC[C@H](NC(=O)[C@H](CC(C)C)NC(=O)CNC(=O)[C@H](Cc1ccccc1)N(C)C(=O)[C@H](Cc1ccccc1)NC(=O)[C@@H](CC(=O)O)NC(=O)CCC(=O)O)C(N)=O | – | – | – | > 10000 | – | –

Results, then the compound that gave them:

IC50 [1] [nM] | EC50 [2] [nM] | IC50 [3] [nM] | IC50 [4] [nM] | Ratio EC50 [5] | Ratio IC50 [6] | Compound
10 | 0.043 | > 10000 | > 10000 | – | – | CSCC[C@H](NC(=O)[C@H](CC(C)C)NC(=O)CNC(=O)[C@H](Cc1ccccc1)N(C)C(=O)[C@H](Cc1ccccc1)NC(=O)[C@H](CC(=O)O)NC(=O)NO)C(N)=O ({CONHOH}-DF[NMeF]GLM-NH2)
28 | 0.041 | > 10000 | > 10000 | – | – | CSCC[C@H](NC(=O)[C@H](CC(C)C)NC(=O)CNC(=O)[C@H](Cc1ccc(O)cc1)N(C)C(=O)[C@H](Cc1ccccc1)NC(=O)[C@H](CC(=O)O)NC(=O)CCC(=O)O)C(N)=O (Suc-DF[NMeY]GLM-NH2)
5.6 | 0.0025 | > 10000 | > 10000 | – | – | CSCC[C@H](NC(=O)[C@H](CC(C)C)NC(=O)CNC(=O)[C@H](Cc1ccccc1)N(C)C(=O)[C@H](Cc1ccccc1)NC(=O)[C@H](CC(=O)O)NS(N)(=O)=O)C(N)=O (X2-F[NMeF]GLM-NH2)
68 | 0.031 | > 10000 | > 10000 | – | – | CSCC[C@H](NC(=O)[C@H](CC(C)C)NC(=O)CNC(=O)[C@H](Cc1ccccc1)N(C)C(=O)[C@H](Cc1ccccc1)NC(=O)[C@H](CC(=O)O)NC(=O)[C@H](CC(=O)O)NC(C)=O)C(N)=O
9.9 | 0.019 | > 10000 | > 10000 | 2 | – | CSCC[C@H](NC(=O)[C@H](CC(C)C)NC(=O)CNC(=O)[C@H](Cc1ccccc1)N(C)C(=O)[C@H](Cc1ccccc1)NC(=O)[C@H](CCCC(=O)O)NC(=O)CCC(=O)O)C(N)=O (Suc-[Aad]F[NMeF]GLM-NH2)
34 | 0.006 | > 10000 | > 10000 | – | – | CSCC[C@H](NC(=O)[C@H](CC(C)C)NC(=O)CNC(=O)[C@H](Cc1ccccc1)N(C)C(=O)[C@H](Cc1ccccc1)NC(=O)[C@H](CC(=O)O)NC(=O)NN)C(N)=O
7.9 | 0.011 | > 10000 | > 10000 | – | – | CSCC[C@H](NC(=O)[C@H](CC(C)C)NC(=O)CNC(=O)[C@H](Cc1ccccc1)N(C)C(=O)[C@H](Cc1ccccc1)NC(=O)[C@H](CC(=O)O)NC(=O)C(N)=O)C(N)=O (Oxamoyl-DF[NMeF]GLM-NH2)
39 | 0.013 | > 10000 | > 10000 | – | – | CSCC[C@H](NC(=O)[C@H](CC(C)C)NC(=O)CNC(=O)[C@H](Cc1ccccc1)N(C)C(=O)[C@H](Cc1ccccc1)NC(=O)[C@H](CC(=O)O)NC(N)=O)C(N)=O (X1-F[NMeF]GLM-NH2)
4.1 | 0.0029 | > 10000 | > 10000 | – | – | COC(=O)C(=O)N[C@@H](CC(=O)O)C(=O)N[C@@H](Cc1ccccc1)C(=O)N(C)[C@@H](Cc1ccccc1)C(=O)NCC(=O)N[C@@H](CC(C)C)C(=O)N[C@@H](CCSC)C(N)=O (Methoxyoxalyl-DF[NMeF]GLM-NH2)
6.1 | 0.03 | > 10000 | > 10000 | 2 | – | CSCC[C@H](NC(=O)[C@H](CC(C)C)NC(=O)CNC(=O)[C@H](Cc1ccccc1)N(C)C(=O)[C@H](Cc1ccccc1)NC(=O)[C@H](CCC(=O)O)NC(=O)CCC(=O)O)C(N)=O
24 | 0.084 | > 10000 | > 10000 | – | – | CSCC[C@H](NC(=O)[C@H](CC(C)C)NC(=O)CNC(=O)[C@H](Cc1ccccc1)N(C)C(=O)[C@H](Cc1ccccc1)NC(=O)[C@@H](CCC(=O)O)NC(=O)CCC(=O)O)C(N)=O
55 | 0.017 | > 10000 | > 10000 | – | – | CSCC[C@H](NC(=O)[C@H](CC(C)C)NC(=O)CNC(=O)[C@H](Cc1ccccc1)N(C)C(=O)[C@H](Cc1ccccc1)NC(=O)[C@@H](CC(=O)O)NC(=O)[C@@H](CC(=O)O)NC(C)=O)C(N)=O
3.6 | 0.083 | > 10000 | > 10000 | – | 10 | CSCC[C@H](NC(=O)[C@H](CC(C)C)NC(=O)CNC(=O)[C@H](Cc1ccccc1)N(C)C(=O)[C@H](Cc1ccccc1)NC(=O)[C@H](CC(=O)O)NC(=O)C(=O)O)C(N)=O
37 | 0.018 | > 10000 | > 10000 | – | – | CSCC[C@H](NC(=O)[C@H](CC(C)C)NC(=O)CNC(=O)[C@H](Cc1ccccc1)N(C)C(=O)[C@H](Cc1ccccc1)NC(=O)[C@@H](CCC(=O)O)NC(=O)[C@H](CC(=O)O)NC(C)=O)C(N)=O
